Test results: patent US11612604B2, “Methods of treating cancer with PLK4 inhibitors” (LUDWIG INSTITUTE FOR CANCER RESEARCH LTD, priority 2017, dated 2023)

Each molecule was assayed against T1, PLK4 (Homo sapiens, UniProt O00444) (assay: Activity (IC50) of the Table 1 compounds as PLK4 inhibitors). Details: Table 1, IC50 class.
T1 sequence (O00444 1-970): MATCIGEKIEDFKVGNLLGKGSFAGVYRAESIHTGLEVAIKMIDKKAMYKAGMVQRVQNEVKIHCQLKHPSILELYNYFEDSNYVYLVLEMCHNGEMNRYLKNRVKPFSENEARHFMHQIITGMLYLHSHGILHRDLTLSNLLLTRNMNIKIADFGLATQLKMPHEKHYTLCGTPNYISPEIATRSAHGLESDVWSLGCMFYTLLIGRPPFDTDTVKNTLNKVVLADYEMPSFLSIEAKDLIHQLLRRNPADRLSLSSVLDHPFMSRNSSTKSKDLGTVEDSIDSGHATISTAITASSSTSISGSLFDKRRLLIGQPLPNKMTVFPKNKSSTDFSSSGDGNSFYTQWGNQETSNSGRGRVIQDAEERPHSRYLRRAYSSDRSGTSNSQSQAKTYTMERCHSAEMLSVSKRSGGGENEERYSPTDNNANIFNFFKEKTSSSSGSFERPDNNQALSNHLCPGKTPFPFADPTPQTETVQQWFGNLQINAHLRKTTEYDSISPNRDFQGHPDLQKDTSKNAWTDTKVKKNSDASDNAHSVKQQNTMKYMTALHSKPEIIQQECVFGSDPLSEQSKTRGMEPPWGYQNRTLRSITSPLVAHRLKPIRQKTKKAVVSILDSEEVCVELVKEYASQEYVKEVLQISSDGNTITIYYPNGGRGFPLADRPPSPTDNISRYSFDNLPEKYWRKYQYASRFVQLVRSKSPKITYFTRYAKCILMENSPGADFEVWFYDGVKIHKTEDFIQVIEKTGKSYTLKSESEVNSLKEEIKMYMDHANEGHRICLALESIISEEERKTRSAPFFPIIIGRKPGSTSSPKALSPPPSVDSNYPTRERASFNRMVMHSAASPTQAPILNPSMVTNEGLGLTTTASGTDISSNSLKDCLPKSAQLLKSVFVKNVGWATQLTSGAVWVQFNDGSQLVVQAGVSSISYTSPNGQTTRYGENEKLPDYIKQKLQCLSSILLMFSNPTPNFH
Format: biochemical

IC50 [nM] | SMILES
< 100 | CNCCN(C)c1nc(Sc2ccc(NC(=O)C3CC3)cc2)nc(Nc2cc(C)[nH]n2)c1C
< 100 | COCCN(C)c1nc(Sc2ccc(NC(=O)C3CC3)cc2)nc(Nc2cc(C)[nH]n2)c1C
< 100 | COc1c(Nc2cc(C)[nH]n2)nc(Sc2ccc(NC(=O)C3CC3)cc2)nc1N1CCOCC1
< 100 | COc1c(Nc2cc(C)[nH]n2)nc(Sc2ccc(NC(=O)C3CC3)cc2)nc1N1CCNCC1
< 100 | COCC(=O)N1CCN(c2nc(Sc3ccccc3)nc(Nc3cc(C)[nH]n3)c2C)CC1
< 100 | CSc1nc(Nc2cc(C)[nH]n2)c(C)c(N(C)C(C)C)n1
< 100 | COc1c(Nc2cc(C)[nH]n2)nc(Sc2ccc(NC(C)=O)cc2)nc1N1CCC(CCN(C)C)CC1
< 100 | CNC(=O)Nc1ccc(Sc2nc(Nc3cc(C)[nH]n3)c(C)c(N(C)C(C)C)n2)cc1
< 100 | CNC(=O)Nc1ccc(Sc2nc(Nc3cc(C)[nH]n3)c(C)c(N3CCN(C(=O)COC)CC3)n2)cc1
< 100 | Cc1cc(Nc2nc(Sc3ccc(N)cc3)nc(N(C)C(C)C)c2C)n[nH]1
< 100 | COCC(=O)N1CCN(c2nc(Sc3ccc(N)cc3)nc(Nc3cc(C)[nH]n3)c2C)CC1
< 100 | Cc1ccc(Sc2nc(Nc3cc(C)[nH]n3)c(C)c(N3CCC(O)CC3)n2)cc1
< 100 | Cc1ccc(Sc2nc(Nc3cc(C)[nH]n3)c(C)c(N3CCOCC3)n2)cc1
< 100 | COCC(=O)N1CCN(c2nc(Sc3ccc(C)cc3)nc(Nc3cc(C)[nH]n3)c2C)CC1
< 100 | COc1c(Nc2cc(C)[nH]n2)nc(Sc2ccc(S(=O)(=O)Cc3ccccc3)cc2)nc1N1CCN(CCN2CCCCC2)CC1
< 100 | COc1c(Nc2cc(C)[nH]n2)nc(Sc2ccc(S(=O)(=O)Cc3ccccc3)cc2)nc1N1CCN(CCN2C(C)CCCC2C)CC1 (stereo not drawn)
< 100 | COc1c(Nc2cc(C)[nH]n2)nc(Sc2ccc(S(=O)(=O)Cc3ccccc3)cc2)nc1N1CCN(CCN2CCC(O)CC2)CC1
< 100 | CC(=O)Nc1ccc(Sc2nc(Nc3cc(C)[nH]n3)c(Cl)c(N3CCC(O)CC3)n2)cc1
< 100 | CC(=O)Nc1ccc(Cc2nc(N3CCC(O)CC3)nc(Nc3cc(C)[nH]n3)c2Cl)cc1

IC50 [nM] | SMILES
< 100 | CCN(c1nc(Sc2ccc(NC(C)=O)cc2)nc(Nc2cc(C)[nH]n2)c1C)C(C)C
< 100 | CC(=O)Nc1ccc(Sc2nc(Nc3cc(C)[nH]n3)c(C)c(N(CCO)C(C)C)n2)cc1
< 100 | CC(=O)Nc1ccc(Sc2nc(Nc3cc(C)[nH]n3)c(C)c(N3CCN(CCN4CCOCC4)CC3)n2)cc1
< 100 | CCOc1c(Nc2cc(C)[nH]n2)nc(Sc2ccc(NC(C)=O)cc2)nc1N1CCC(O)CC1
< 100 | Cc1ccc(Sc2nc(Nc3cc(C)[nH]n3)c(C)c(N(C)C(C)C)n2)cc1
< 100 | COCC(=O)N1CCN(c2nc(SC)nc(Nc3cc(C)[nH]n3)c2C)CC1
< 100 | Cc1cc(Nc2nc(Sc3ccc(NC(=O)C4CC4)cc3)nc(N3CCC(O)CC3)c2C)n[nH]1
< 100 | COc1c(Nc2cc(C)[nH]n2)nc(Sc2ccc(CC(=O)C3CC3)cc2)nc1N1CCC(O)CC1
< 100 | CC(=O)Nc1ccc(Sc2nc(Nc3cc(C)[nH]n3)c(C)c(N3C4CCC3CC(O)C4)n2)cc1 (stereo not drawn)
< 100 | COc1c(Nc2cc(C)[nH]n2)nc(Sc2ccc(NC(C)=O)cc2)nc1N1C2CCC1CC(O)C2 (stereo not drawn)
< 100 | COc1c(Nc2cc(C)[nH]n2)nc(Sc2ccc(S(=O)(=O)Cc3ccccc3)cc2)nc1N1CCO[C@H](C)C1
< 100 | COc1c(Nc2cc(C)[nH]n2)nc(Sc2ccc(S(=O)(=O)Cc3ccccc3)cc2)nc1N1CCN(C2CCN(Cc3ccccc3)CC2)CC1
< 100 | COc1c(Nc2cc(C)[nH]n2)nc(Sc2ccc(S(=O)(=O)Cc3ccccc3)cc2)nc1N1CCO[C@@H](C)C1
< 100 | COc1c(Nc2cc(C)[nH]n2)nc(Sc2ccc(S(=O)(=O)Cc3ccccc3)cc2)nc1N1CC2CCC(C1)O2
< 100 | COc1cccc(CS(=O)(=O)c2ccc(Sc3nc(Nc4cc(C)[nH]n4)c(OC)c(N4CCN(CCN(C)Cc5ccccc5)CC4)n3)cc2)c1
< 100 | COc1c(Nc2cc(C)[nH]n2)nc(Sc2ccc(S(=O)(=O)Cc3ccccc3C)cc2)nc1N1CCN(CCN(C)C)CC1
< 100 | COc1c(Nc2cc(C)[nH]n2)nc(Sc2ccc(S(=O)(=O)Cc3ccccc3)cc2)nc1N1CCOC[C@H]1C
< 100 | COc1c(Nc2cc(C)[nH]n2)nc(Sc2ccc(S(=O)(=O)Cc3ccccc3)cc2)nc1N1CCOC[C@@H]1C
< 100 | COc1c(Nc2cc(C)[nH]n2)nc(Sc2ccc(S(=O)(=O)Cc3cccc(F)c3)cc2)nc1N1CCN(CCN(C)C)CC1

IC50 [nM] | SMILES
< 100 | COc1c(Nc2cc(C)[nH]n2)nc(Sc2ccc(S(=O)(=O)Cc3cccc([N+](=O)[O-])c3F)cc2)nc1N1CCN(CCN(C)C)CC1
< 100 | COC(=O)c1cccc(CS(=O)(=O)c2ccc(Sc3nc(Nc4cc(C)[nH]n4)c(OC)c(N4CCN(CCN(C)C)CC4)n3)cc2)c1
< 100 | COc1c(Nc2cc(C)[nH]n2)nc(Sc2ccc(S(=O)(=O)Cc3cccc(C(N)=O)c3)cc2)nc1N1CCN(CCN(C)C)CC1
< 100 | COc1c(Nc2cc(C)[nH]n2)nc(Sc2ccc(S(=O)(=O)Cc3ccccc3)cc2)nc1N1CCN(CCN2CCC2)CC1
< 100 | COc1c(Nc2cc(C)[nH]n2)nc(Sc2ccc(S(=O)(=O)Cc3ccccc3NC(C)=O)cc2)nc1N1CCN(CCN(C)C)CC1
< 100 | COc1c(Nc2cc(C)[nH]n2)nc(Sc2ccc(S(=O)(=O)Cc3ccccc3C(F)(F)F)cc2)nc1N1CCN(CCN(C)C)CC1
< 100 | COc1c(Nc2cc(C)[nH]n2)nc(Sc2ccc(S(=O)(=O)Cc3ccccc3N(C)C)cc2)nc1N1CCN(CCN(C)C)CC1
< 100 | COc1c(Nc2cc(C)[nH]n2)nc(Sc2ccc(S(=O)(=O)Cc3ccccc3-c3ccccc3)cc2)nc1N1CCN(CCN(C)C)CC1
< 100 | COc1c(Nc2cc(C)[nH]n2)nc(Sc2ccc(S(=O)(=O)Cc3ccccc3C#N)cc2)nc1N1CCN(CCN(C)C)CC1
< 100 | COc1c(Nc2cc(C)[nH]n2)nc(Sc2ccc(S(=O)(=O)Cc3cccc(C(=O)N(C)C)c3)cc2)nc1N1CCN(CCN(C)C)CC1
< 100 | COc1c(Nc2cc(C)[nH]n2)nc(Sc2ccc(S(=O)(=O)Cc3ccccc3C(N)=O)cc2)nc1N1CCN(CCN(C)C)CC1
< 100 | COc1c(Nc2cc(C)[nH]n2)nc(Sc2ccc(S(=O)(=O)Cc3ccccc3)cc2)nc1N1CCC(CCN2C3CCCC2CC3)CC1
< 100 | COc1c(Nc2cc(C)[nH]n2)nc(Sc2ccc(S(=O)(=O)Cc3cccc([N+](=O)[O-])c3)cc2)nc1N1CCOC[C@H]1C
< 100 | COc1c(Nc2cc(C)[nH]n2)nc(Sc2ccc(S(=O)(=O)Cc3ccccc3)cc2)nc1N1CCN(C2CCNCC2)CC1
< 100 | COc1c(Nc2cc(C)[nH]n2)nc(Sc2ccc(S(=O)(=O)Cc3ccccc3)cc2Cl)nc1N1CCN(CCN(C)C)CC1
< 100 | COc1c(Nc2cc(C)[nH]n2)nc(Sc2ccc(S(=O)(=O)Cc3cccc([N+](=O)[O-])c3)cc2)nc1N1CCO[C@H](C)C1
< 100 | COc1c(Nc2cc(C)[nH]n2)nc(Sc2ccc(S(=O)(=O)Cc3cccc([N+](=O)[O-])c3)cc2)nc1N1CCO[C@@H](C)C1
< 100 | COc1c(Nc2cc(C)[nH]n2)nc(Sc2ccc(S(=O)(=O)Cc3cccc(NC(C)=O)c3)cc2)nc1N1CCN(CCN(C)C)CC1
< 100 | COc1c(Nc2cc(C)[nH]n2)nc(Sc2ccc(S(=O)(=O)Cc3cccc(N(C)C)c3)cc2)nc1N1CCN(CCN(C)C)CC1
